# Ends that are not written are not given here. * marks the point of attachment. RhodamineB = CCN(CC)c1ccc2c(-c3ccccc3C(=O)*)c3ccc(=[N+](CC)CC)cc-3oc2c1
# Key:
# MDA-MB-231 cells = experiment: Delivery of TMR-k5 probe into live cells (nuclear staining); assay type: cell-based, human; conditions: MDA-MB-231, TMR-k5 20 μM, 1 h, biological triplicates
# Excerpt: To test the relative delivery efficiency of the d(X)TAT peptides, the cell lines MDA-MB-231 (epithelial-like, human breast cancer, spindle-shaped) and Neuro-2a (mouse neuroblastoma with neuronal and amoeboid stem cell morphology) were chosen. These cell lines are routinely used in cancer research, neuroscience, and toxicology. In the context of this study, we rationalized that the distinct differences in origin and characteristics between MDA-MB-231 and Neuro-2a properties may be useful to assess the generality of the results obtained. MDA-MB-231 or Neuro-2a cells were incubated with d(X)TAT peptides at various concentrations and TMR-k5 (20 μM) for 1 h. Cells were then washed, incubated with the DNA stain Hoechst and the live/dead marker SYTOX green (or SYTOX blue), and imaged by fluorescence microscopy. The localization of TMR-k5 in individual nuclei was then assessed by measuring the overlap between TMR and Hoechst signals (Fig. 2, Figure S13). […] This is because, in our experience, dfTAT and dfTAT analogs display a threshold behavior where, below a certain endosomal concentration, endosomal leakage is not achieved. In contrast above this threshold most late endosomes are permeabilized. […] Our rationale was therefore to titrate cells with different concentrations of d(X)TAT agents, monitor how many cells display cytosolic/nuclear delivery of TMR-k5, and compare the different d(X)TAT peptides.
# MDA-MB-231 and Neuro2a cells obtained from ATCC (breast cancer-derived epithelial) were cultured in humidified atmosphere at 5% CO2 and 37 °C. Cells were seeded in plastic 48-well plates (Fisher) for quantitative analysis or 8-well Labtek II plates (Fisher) for qualitative imaging at 100× magnification. The cells were grown to 80–90% confluency in a 37 °C humidified atmosphere containing 5% CO2. Cells were washed three times with Leibovitz’s L15 media (L15) (Fisher). Cells were then incubated with peptide and 20 µM of the TMR-k5 pentalysine probe at 37 °C for 1 h. This was followed by washing the cells three times with L15 supplemented with heparin (Sigma-Aldrich) (1 mg/mL) and an extra L15 wash. […] Additionally, the cell permeable dye Hoechst 33342 (Thermo Fisher Scientific o) was used for nuclear staining. Cells were imaged using an EVOS FL Auto 2 inverted microscope (Thermo Fisher Scientific). The microscope is equipped with a heating chamber maintained at 37 °C. Images were acquired using bright field imaging and five fluorescence filter sets: CFP (Ex = 436 ± 10 nm, Em = 480 ± 20 nm), RFP (Ex = 560 ± 20 nm, Em = 630 ± 35 nm), FITC (Ex = 488 ± 10 nm Em = 520 ± 20 nm), DAPI (Ex = 350 ± 50 nm, Em = 460 ± 25 nm), […]. For image viewing and processing individual images, the Celleste 4.0 software (Thermo Fisher Scientific) was used. Nuclear regions in 20× images where identified using Hoechst staining (the quantification process is described in Figure S13). The intensity of these objects in the TMR channel was then determined using the Celleste software. Cells stained by the SYTOX or DRAQ dyes were considered dead and not counted as positive for delivery. Cells displaying a nuclear TMR-k5 fluorescence above the fluorescence threshold determined for TMR-k5 alone were considered positive for delivery (if excluding SYTOX or DRAQ7 stain, and if visually showing stained nucleoli for confirmation of intracellular localization). The percentage of cells positive for TMR-k5 nuclear staining was then calculated, using Hoechst-stained cells to count the total number of cells present. […] Instead, this assay quantifies the number of cells in which the nuclear fluorescence of TMR-k5 is above a detection threshold. This threshold is dependent on the microscope, imaging conditions, and the concentration of TMR-k5 used during incubation (Figure S13). The reproducibility of all the experiments was assessed by performing experiments with independent batches of cell cultures on three different days (i.e., biological triplicates). […]
# [1] = C18 reverse phase HPLC hydrophobicity of (X)TAT and d(X)TAT peptides; assay type: physicochemical; conditions: chromatographic, C18, 0–40% B over 20 min
# Procedure: In order to assess the hydrophobicity contributed by each X group, the peptides were first analyzed by reverse phase HPLC using a C18 column, using gradients of buffer A (water/TFA 99.9:0.1) and buffer B (acetonitrile/water/TFA 89.9:10:0.1 v:v:v) (gradient of 0–40% B over 20 min). […] All d(X)TAT peptides eluted over a range of 10–35% acetonitrile. […] One caveat of this approach is that the buffer system used for peptide analysis is pH 2 (due to the presence of TFA, required to protonate residue side chains). However, pH 2 is not representative of the pH that CPPs may be exposed to when in contact with cells, either pH 7.2 outside the plasma membrane, or pH between 6.5 and 4.5 while inside acidic endosomes. In order to establish the relative hydrophobicities of d(X)TAT peptides at these pHs, we sought to use other techniques, including thin layer chromatography using C18, aluminum oxide or silica stationary phases. Unfortunately, the arginine-rich peptides could not be separated on these systems. To solve this problem, each individual X group was synthesized, using acetylated and amidated N and C-terminal positions to mimic the peptide backbone found in the d(X)TAT constructs (Fig. 1A, Figure S11). Each Ac-X-NH2 group was analyzed by HPLC and by RP18 TLC, using 40% acetonitrile and 60% PBS as mobile phase. The HPLC elutions of Ac-X-NH2 correlated with the HPLC elutions of their respective d(X)TAT counterparts (Fig. 1C). Similarly, the relative hydrophobicities of Ac-X-NH2 determined by TLC (measured as 1-Rf) at pH 4 or 8 were in good agreement with the results obtained by HPLC (Fig. 1D). […] In the case of DEAC, the protonation state of the fluorophore has, to our knowledge, not been characterized.
# All rpHPLC retention times were analyzed using an Agilent HP 1200 series instrument on an analytical Phenomenex Luna Omega Polar C18 column (5 μm, 4.6 mm × 250 mm). The flow rate was 2 mL/min, and detection was at 214 nm. A binary solvent system was used comprising 99.9% H2O/0.1% TFA (solvent A) and 90% Acetonitrile/9.9% H2O/0.1% TFA (solvent B). […]
# live cells = conditions: cited from earlier work
# Procedure: Several strategies have been pursued to improve the delivery properties of CPPs like TAT. They include addition of endosomolytic peptide sequences, addition of hydrophobic residues and cyclization. We and others have shown that reagents which combine multiple copies of the TAT peptide, or TAT-like analogs, are also more efficient at entering cells than their monomeric TAT counterpart. […] In particular, protein payloads co-incubated with dfTAT reach the cytosol of cells by escaping late endosomes specifical ...
# [2] = design: method as in PMID 24227203; conditions: cited from earlier work
compound,measurement,setting,value
d(K(RhB))TAT: disulfide dimer of CXRKKRRQRRRG with X = lysine conjugated to rhodamine B (CK(RhodamineB)RKKRRQRRRG-NH2; also: disulfide dimer),d(X)TAT concentration at which delivery is achieved in a high percentage of cells,MDA-MB-231 cells,< 3 µM
same,relative hydrophobicity of X group by C18 HPLC,"[1]; 0.1% TFA (pH 2), ranking within the d(X)TAT series",most hydrophobic
"(CK(TMR)RKKRRQRRR)2 (disulfide) [dfTAT, dimer of TAT linked by a cystine disulfide bridge, labeled with two tetramethylrhodamine fluorophores]",endosomal escape,live cells,high levels of endosomal escape
same,time for cell penetration and payload delivery,live cells,less than an hour
same,protein payload remaining trapped inside endosomes relative to what entered the cytosol,live cells; protein payloads co-incubated with dfTAT,less than 10%
(K(RhB))TAT: monomeric peptide CXRKKRRQRRRG with X = K(RhB) (CK(RhodamineB)RKKRRQRRRG-NH2),effect of dimerization on hydrophobicity (dimer vs monomer),"[1]; pH 2, (X)TAT vs d(X)TAT",most impacted by dimerization
O=C1OC2(c3ccc(O)cc3Oc3cc(O)ccc32)c2ccccc21 [fluorescein],pKa (dianionic/monoanionic forms),[2],6.4
same,pKa (monoanionic/neutral forms),[2],4.3
same,pKa (neutral/cationic forms),[2],2.1
